Assay results published in paper PMC10539501 (Nature Communications, 2023).
Starred links: 1 amine or outer side, 2 acyl side, 3 side chain; linkers in the order of their positions; H or OH if unused. Non-standard residues stand in square brackets, D forms with d. Residues, ends and D or L forms follow the SMILES beside them. X20 = C[C@H](NC(=S)[C@@H](C)N[*:1])C(=O)[*:2]

How the values were obtained:
[1] = physchem; details: pH 7.4
[2] = Octanol-water distribution coefficient (logD7.4); details: octanol/water, pH 7.4

Row | logD [1] | logD [2] | SMILES
1 | -2.12 |  | NCCCC[C@H](NC(=S)[C@@H](N)Cc1ccccc1)C(=O)O [1a]
2 | -1.95 |  | CN(C(=O)[C@@H](N)Cc1ccccc1)[C@@H](CCCCN)C(=O)O [1b]
3 | -1.45 |  | N[C@@H](Cc1ccccc1)C(=S)N[C@@H](CCC(=O)O)C(=O)O [2a]
4 | -2.14 |  | CN(C(=O)[C@@H](N)Cc1ccccc1)[C@@H](CCC(=O)O)C(=O)O [2b]
5 | -1.61 |  | N[C@@H](Cc1ccccc1)C(=S)NCC(=O)O [3a]
6 | -1.73 |  | CN(CC(=O)O)C(=O)[C@@H](N)Cc1ccccc1 [3b]
7 | -1.76 |  | C[C@H](NC(=S)[C@@H](N)Cc1ccccc1)C(=O)O [4a]
8 | -1.76 |  | C[C@@H](C(=O)O)N(C)C(=O)[C@@H](N)Cc1ccccc1 [4b]
9 | -0.92 |  | CC(C)[C@H](NC(=S)[C@@H](N)Cc1ccccc1)C(=O)O [5a]
10 | -0.62 |  | CC(C)[C@@H](C(=O)O)N(C)C(=O)[C@@H](N)Cc1ccccc1 [5b]
11 | -0.79 |  | CSCC[C@H](NC(=S)[C@@H](N)Cc1ccccc1)C(=O)O [6a]
12 | -1.05 |  | CSCC[C@@H](C(=O)O)N(C)C(=O)[C@@H](N)Cc1ccccc1 [6b]
13 | 0.13 |  | N[C@@H](Cc1ccccc1)C(=S)N[C@@H](Cc1c[nH]c2ccccc12)C(=O)O [7a]
14 | 0.21 |  | CN(C(=O)[C@@H](N)Cc1ccccc1)[C@@H](Cc1c[nH]c2ccccc12)C(=O)O [7b]
15 |  | -0.32 | C[C@@H]1NC(=O)[C@H](C)NC(=O)[C@H](C)NC(=S)[C@@H](C)NC(=O)[C@H](C)NC1=O [8a]
16 |  | -0.14 | C[C@@H]1NC(=O)[C@H](C)NC(=S)[C@H](C)NC(=O)[C@@H](C)NC(=O)[C@H](C)NC1=O [8b]
17 |  | -0.19 | C[C@@H]1NC(=O)[C@H](C)NC(=S)[C@H](C)NC(=O)[C@H](C)NC(=O)[C@@H](C)NC1=O [8c]
18 |  | -0.23 | C[C@@H]1NC(=O)[C@H](C)NC(=O)[C@@H](C)NC(=O)[C@H](C)NC(=S)[C@H](C)NC1=O [8d]
19 |  | -0.14 | C[C@@H]1NC(=O)[C@H](C)NC(=O)[C@@H](C)NC(=S)[C@H](C)NC(=O)[C@H](C)NC1=O [8e]
20 |  | -0.67 | C[C@@H]1NC(=O)[C@H](C)NC(=O)[C@H](C)NC(=S)[C@@H](C)NC(=O)[C@H](C)NC(=O)[C@H](C)NC1=O [9a] (cyclo([X20]AAAA))
21 |  | -0.7 | C[C@@H]1NC(=O)[C@H](C)NC(=O)[C@H](C)NC(=S)[C@H](C)NC(=O)[C@@H](C)NC(=O)[C@H](C)NC1=O [9b]
22 |  | -0.59 | C[C@@H]1NC(=O)[C@H](C)NC(=S)[C@H](C)NC(=O)[C@H](C)NC(=O)[C@@H](C)NC(=O)[C@H](C)NC1=O [9c]
23 |  | -0.67 | C[C@@H]1NC(=O)[C@H](C)NC(=O)[C@@H](C)NC(=O)[C@H](C)NC(=O)[C@H](C)NC(=S)[C@H](C)NC1=O [9d]
